Values quoted from earlier work, collected in US5569647A, “Angiopeptin cyclopeptide compounds” (Adir et Compagnie, priority 1993, dated 1996).

System: cells of the vascular smooth muscle
Details: rat carotid artery, desiccation of the endothelium in air

Substance: angiopeptin
- anti-proliferative effect in vivo on cells of the vascular smooth muscle: anti-proliferative effect in vivo
